Source: patent US4228150A, “Method of inhibiting dextransucrase and oral compositions for use therein” (Iowa State University Research Foundation, Inc., priority 1979, dated 1980)

Test system: dextransucrase
Test: Inhibition of dextransucrase synthesis of dextran from 14C-sucrose (radioactive polysaccharide on paper, slope versus control)
Type: biochemical, bacteria
Settings: compared to 6,1',6'-trifluorosucrose
Experimental: Dextransucrase was obtained from the culture supernatant of bacteria. Various amounts (6 to 30 mg/ml) of the fluorosucrose mixture prepared as in Example I were added to the enzyme (3 units/ml)* and allowed to incubate 10 minutes. At the end of this time, the enzyme was assayed by adding 1/2 volume of 0.3 M ^14 C-(U)-sucrose to the fluorosucrose-enzyme solution; equal aliquots were withdrawn with time and spotted onto 1.5×1.5 cm squares of Whatman 3 MM paper, which were immediately dropped into 20 ml anhydrous methanol. Three 200 ml volumes of methanol were added in 15 min. intervals. The papers were then removed, dried, and the radioactivity determined in a liquid scintillation spectrometer. The amount of radioactivity (polysaccharide formed) was plotted against the reaction time with sucrose (time of aliquot removed). The slopes of the resulting lines were determined and the percent inhibition calculated from the ratio of the slopes of the inhibited reactions to the slope of a control in which no inhibitor was added.
*Units are in terms of International Enzyme Units, that is, the amount of enzyme that will incorporate one micromole of monomer into polysaccharide per minute under conditions of optimum temperature and pH.

SMILES: O[C@@H]1[C@@H](O)[C@@H](O[C@]2(CCl)O[C@H](CCl)[C@@H](O)[C@@H]2O)O[C@H](CCl)[C@H]1O [6,1',6'-trichlorosucrose]
- effectiveness as an inhibitor for dextran: relatively ineffective
